This is an account of results in patent publication US20240409934A1, “FOXO1-TARGETED THERAPY FOR THE TREATMENT OF CANCER” (BOARD OF REGENTS, THE UNIVERSITY OF TEXAS SYSTEM, priority 2021, published 2024).

Common to all, as to assay type: cell-based
The test system of test [1] is SW480. Briefly: Colony formation assay (crystal violet). To be noted: treated five days. How it is done: [The procedure below names another cell line; the source lists this cell line under the same test.] (§1) Cell culture and drug treatments. Cell lines were obtained from ATCC (American Type Culture Collection, Manassas, VA) and grown under standard conditions (5% CO2, 10% FBS (fetal bovine serum), with 5% antifungal/antibacterial). Cell lines were tested for Mycoplasma using the MycoAlert Mycoplasma Detection Kit (Lonza, Basel Switzerland, cat: LT07-218); all experiments were done with mycoplasma negative cells. U87MG cells were propagated in MEM (Minimal Essential Medium). BT549 and DBTRG cells were propagated in RPMI (Roswell Park Memorial Institute 1640 Medium). LN18, U118MG, A172 and LN229 cells were propagated in DMEM (Dulbecco's Modified Eagle Medium). Neurosphere/cancer stem cell cultures for U87MG and BT549 cell lines were plated with 40,000 cells per mL in 3D Tumorsphere Medium XF (Sigma cat: C-28070, Burlington, MA). BT549 cancer stem cell cultures were supplemented with 1XB27 XenoFree CTS (Gibco/Thermo Fisher Waltham, MA, USA). AS1842856 was purchased from Calbiochem (Danvers, MA) and utilized at 200 nM, 500 nM and 1 μM final concentrations as indicated. AS1708727 was purchased from MedChem Express (Monmouth Junction, NJ) and was used at 0.5 μM, 1.0 µM and 2.0 μM concentrations. 5-aza-2′-deoxycytidine (5-AZA) was purchased from Millipore/Sigma (Burlington, MA) and utilized at a final concentration of 3 μM. Cells were plated at a density of 2,700 cells per mL and were treated five days with indicated drug. Treatments were investigated in triplicate (in numerous independent experiments) and stained with crystal violet. Plates were aspirated of media then each well was washed with 1.0 mL of 1x phosphate buffered saline (PBS) once before being stained with 1.0 mL of crystal violet stain (0.5% crystal violet in buffered formalin) and incubated for 15 minutes. The stain was aspirated, and wells were washed 3 times with 0.5 mL of 1x PBS. After collections were completed, crystal violet-stained plates were solubilized using 0.5 mL on each well of 10% acetic acid and placed on shaker for 1 hour. Solubilized samples were transferred to 96 well plates and quantified on a spectrophotometer at 590 nm. Quantified plates were analyzed with a Tukey test. Error bars were added using the standard deviation. Cells were plated at 2,700 cells per mL and were treated five days with the indicated drug. Treatments were investigated in triplicate (in numerous independent experiments) and stained with crystal violet. Plates were aspirated of media, then each well was washed with 1.0 mL of 1× phosphate-buffered saline (PBS) once before being stained with 1.0 mL of crystal violet stain (0.5% crystal violet in buffered formalin) and incubated for 15 minutes. The stain was aspirated, and cells were washed three times with 0.5 mL of 1×PBS. After collections were completed, crystal violet-stained plates were solubilized using 0.5 mL on each well of 10% acetic acid and placed on a shaker for 1 hour. Solubilized samples were transferred to 96 well plates and quantified on a spectrophotometer at 590 nm using iMark Microplate Absorbance Reader (Bio-Rad, Hercules, CA). Quantified plates were analyzed with a Tukey Test. Error bars were added using the standard deviation.

Test [2] concerns BT549. Nature of the test: Colony formation assay (crystal violet). The conditions noted are these: treated five days. As to the method:
as §1

Test [3] relates to A172. Nature of the test: Colony formation assay (crystal violet). The conditions noted are these: treated five days. How it is done:
as §1

Test [4] concerns LN18. Nature of the test: Colony formation assay (crystal violet). To be noted: treated five days. As to the method: as §1
Test [5] has as its system LN229. Briefly: Colony formation assay (crystal violet). The conditions noted are these: treated five days. As to the method: as §1
Test [6] deals with DBTRG. Briefly: Colony formation assay (crystal violet). To be noted: treated five days. As to the method:
as §1

The test system of test [7] is U87MG cells. Nature of the test: Colony formation assay (crystal violet). How it is done: as §1
Test [8] deals with HCT116 colon cancer cells. Nature of the test: Gene expression by qRT-PCR (TUBB reference). To be noted: 48 hours.

With `CCn1cc(C(=O)O)c(=O)c2c(N)c(F)c(NC3CCCCC3)cc21` [AS1842856, 5-Amino-7-(cyclohexylamino)-1-ethyl-6-fluoro-4-oxo-1,4-dihydroquinoline-3-carboxylic acid], the colony formation entry in test [1] is “Significantly reduced colony formation”; in test [2], “fewer cells with 200 nM drug treatment with further reductions using 500 nM and 1 μM drug”; in test [3], “fewer cells with 200 nM drug treatment with further reductions using 500 nM and 1 μM drug”; in test [4] it was “fewer cells with 200 nM drug treatment with further reductions using 500 nM and 1 μM drug”; in test [5], “fewer cells with 200 nM drug treatment with further reductions using 500 nM and 1 μM drug”; in test [6] it was “fewer cells with 200 nM drug treatment with further reductions using 500 nM and 1 μM drug”. Also, the colony number entry in test [7] was “colony number was not significantly impacted”. Besides, the FAS gene expression entry in test [8] is given as “induced the FAS gene”.
